Assay results: PMC5566891, “Eukaryotic transporters for hydroxyderivatives of benzoic acid” (Scientific Reports, 2017)

Molecular target: T1, Hbt2 (Hbt2p) (Lodderomyces parapsilosis, UniProt G8BG57)
T1 construct: native untagged full-length transporter in wild-type cells; assigned by knockout of HBT2
Assay: […]-substrate uptake, wild-type versus hbt2 knockout cells
Type: cell-based
Conditions: 50 µM, 50 mM Tris-HCl pH 7.5, 28 °C, labelled compound

T1 sequence (G8BG57 entry or part of it): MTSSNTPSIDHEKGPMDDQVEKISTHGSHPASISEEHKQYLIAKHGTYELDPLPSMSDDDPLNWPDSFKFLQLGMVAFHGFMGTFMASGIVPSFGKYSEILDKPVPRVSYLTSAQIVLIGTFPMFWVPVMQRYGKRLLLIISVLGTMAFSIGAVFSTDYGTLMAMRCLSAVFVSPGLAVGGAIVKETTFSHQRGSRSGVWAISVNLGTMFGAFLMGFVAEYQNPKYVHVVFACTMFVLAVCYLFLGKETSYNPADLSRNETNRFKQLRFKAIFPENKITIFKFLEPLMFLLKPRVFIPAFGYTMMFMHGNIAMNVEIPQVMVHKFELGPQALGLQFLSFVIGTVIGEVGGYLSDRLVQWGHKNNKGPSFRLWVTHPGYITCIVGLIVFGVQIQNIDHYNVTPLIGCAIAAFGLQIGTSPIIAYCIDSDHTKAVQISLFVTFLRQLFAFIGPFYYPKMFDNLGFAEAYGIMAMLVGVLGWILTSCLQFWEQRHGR

SMILES	14C-substrate uptake, wild-type versus hbt2 knockout cells (cells grown on hydroquinone)	14C-substrate uptake, wild-type versus hbt2 knockout cells (cells grown on 4-hydroxybenzoate or hydroquinone)
O=C(O)c1ccc(O)c(O)c1 [protocatechuate]	uptake of both substrates is impaired in the ∆hbt2/∆hbt2 mutant	–
O=C(O)c1ccc(O)cc1 [4-hydroxybenzoate]	–	uptake of both substrates is impaired in the ∆hbt2/∆hbt2 mutant
